Experimental data: US20050074827A1, “Methods for identifying modulators of quorum-sensing signaling in bacteria” (priority 2003, published 2005)

Legend:
[1] = system: LasR-controlled promoter PrsaL (yfp reporter) in MW1.pUM15; assay: Titration of yfp expression in MW1.pUM15 against autoinducer concentration; format: cell-based, Pseudomonas aeruginosa
Description: Strain Construction. We tested whether the P. aeruginosa quorum-sensing-controlled promoter for the rsaL gene (PrsaL) can be used in high-throughput screening to identify modulators of quorum-sensing signaling. We constructed a plasmid (designated pUM15) with yfp under control of the P. aeruginosa LasR-controlled promoter PrsaL and introduced the plasmid into P. aeruginosa wild-type strain PAO1 (designated PAO1.pUM15). In PAO1.pUM15, the expression of yfp is dependent on the endogenously synthesized autoinducer, 3-oxo-C12-HSL. Thus, fluorescence will be altered if a test compound modulates any aspect of signaling, including, e.g., signal synthesis, stability, reception, or expression of LasR-dependent genes. Accordingly, we designated this assay the “Complete Signaling Assay” or CSA. […]
Measurement of Reporter Gene Product. We measured fluorescence with an excitation filter at 485 nm and an emission filter at 535 nm in a Tecan SPECTRAFluor Plus plate reader. […]
Expression Depends on Autoinducer. […] We detected very little fluorescence in MW1.pUM15 culture grown in the absence of signal molecule (FIG. 1).
The Assay Mimics Naturally Occurring Quorum-Sensing Signaling. […] We observed that fluorescence in MW1.pUM15 is half-maximal at 200±100 nM 3-oxo-C12-HSL (FIG. 2). […] We also confirmed that expression of yfp is quorum-sensing dependent by graphing fluorescence per cell against cell density (FIG. 3). […]

[2] = cell-based binding assay, Passador et al., J. Bacteriol. 178: 5995-6000 (1996); read-out: half-maximal saturation; cited from earlier work

Question: For `CCCCCCCCCC(=O)CC(=O)NC1CCOC1=O` (stereo not drawn) [3-oxo-C12-HSL], which EC50 ([1]; MW1.pUM15, yfp fluorescence, FIG. 2, read-out: 3-oxo-C12-HSL concentration at which fluorescence in MW1.pUM15 is half-maximal) is on record?
Answer: 0.2 ± 0.1 µM

Question: And the “effect on yfp expression in MW1.pUM15” value ([1]; addition of autoinducer, 0.9 mM per FIG. 1 legend)?
Answer: restored expression of yfp

Question: What about the Kd [2] of the same compound?
Answer: 0.2 µM
